The source of these data is patent US20070010671A1, “Novel quinazoline derivatives and methods of treatment related to the use thereof” (priority 2003, published 2007).

The first test deals with MCH receptor (Homo sapiens, UniProt Q99705). Nature of the test: High throughput functional screening FLIPR/FDSS6000: inhibition of MCH-evoked intracellular Ca2+ changes. The test is classed as cell-based. The settings on record: class by percent of control at 10^-7 M or IC50. The gist of the method: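 Cells expressing a non-endogenous, constitutively active MCH receptor were loaded with 4 μM Fluo4-AM (with probenecid) for 1 hr at 37° C. Test compound was preincubated 3 min at 37° C before 50 nM MCH was added. The [Ca2+]i transient was read at Ex 488/Em 530 nm for 290 s.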
Turning to `COC(=O)c1cc(NC(=O)NC[C@H]2CC[C@@H](Nc3nc(N(C)C)c4ccccc4n3)CC2)cc(C(=O)OC)c1` [compound 751], the class was 3 (Class 3: The value of percent of control at 10^−7 M was more than 60% or the value of IC50 was more than 200 nM.). Same read-out and setting: for `CCc1cccc(CC)c1NC(=S)N[C@H]1CC[C@@H](Nc2nc(N(C)C)c3ccccc3n2)CC1` [compound 250, N-(2,6-diethylphenyl)-N′-(cis-4-{[4-(dimethylamino)quinazolin-2-yl]amino}cyclohexyl)thiourea] the value was 1 (Class 1: The value of percent of control at 10^−7 M was less than 40% or the value of IC50 was less than 50 nM.); for `CN(C)c1nc(N[C@H]2CC[C@@H](CNC(=O)NCc3ccc(Cl)c(Cl)c3)CC2)nc2ccccc12` [compound 521], 3 (Class 3: The value of percent of control at 10^−7 M was more than 60% or the value of IC50 was more than 200 nM.). Still for that read-out and setting: the figure for `COc1ccc(C)cc1NC(=O)NC[C@H]1CC[C@@H](Nc2nc(N(C)C)c3ccccc3n2)CC1` [compound 504] is 1 (Class 1: The value of percent of control at 10^−7 M was less than 40% or the value of IC50 was less than 50 nM.); for “N-(3,5-difluorobenzyl)-N′-[(cis-4-{[4-(dimethylamino)quinazolin-2-yl]amino}cyclohexyl)methyl]urea [compound 524]” it is 1 (Class 1: The value of percent of control at 10^−7 M was less than 40% or the value of IC50 was less than 50 nM.); for `CN(C)c1nc(N[C@H]2CC[C@@H](CNC(=O)Nc3cccc(Cl)c3)CC2)nc2ccccc12` [compound 415, N-(3-chlorophenyl)-N′-[(cis-4-{[4-(dimethylamino)quinazolin-2-yl]amino}cyclohexyl)methyl]urea] it is 2 (Class 2: The value of percent of control at 10^−7 M was from 40% to 60% or the value of IC50 was from 50 nM to 200 nM.). Same read-out and setting: for `CCCCCCNC(=S)NC[C@H]1CC[C@@H](Nc2nc(N(C)C)c3ccccc3n2)CC1` [compound 600] the value was 3 (Class 3: The value of percent of control at 10^−7 M was more than 60% or the value of IC50 was more than 200 nM.); for `CCCCCNC(=O)NC[C@H]1CC[C@@H](Nc2nc(N(C)C)c3ccccc3n2)CC1` [compound 454, N-[(cis-4-{[4-(dimethylamino)quinazolin-2-yl]amino}cyclohexyl)methyl]-N′-pentylurea], 2 (Class 2: The value of percent of control at 10^−7 M was from 40% to 60% or the value of IC50 was from 50 nM to 200 nM.); for `Cc1cc(NC(=S)N[C@H]2CC[C@@H](Nc3nc(N(C)C)c4ccccc4n3)CC2)ccc1Br` [compound 312], 3 (Class 3: The value of percent of control at 10^−7 M was more than 60% or the value of IC50 was more than 200 nM.). As for `CN(C)c1nc(N[C@H]2CC[C@@H](NC(=S)NCc3ccc(Cl)c(Cl)c3)CC2)nc2ccccc12` [compound 258], the class is recorded as 3 (Class 3: The value of percent of control at 10^−7 M was more than 60% or the value of IC50 was more than 200 nM.). In the case of `CN(C)c1nc(N[C@H]2CC[C@@H](CNC(=S)NCC3CCCO3)CC2)nc2ccccc12` (relative stereo) [compound 620], the class is recorded as 2 (Class 2: The value of percent of control at 10^−7 M was from 40% to 60% or the value of IC50 was from 50 nM to 200 nM.). On the same count and under the same terms, for `COc1cc(NC(=O)NC[C@H]2CC[C@@H](Nc3nc(N(C)C)c4ccccc4n3)CC2)cc(OC)c1OC` [compound 520] the value was 3 (Class 3: The value of percent of control at 10^−7 M was more than 60% or the value of IC50 was more than 200 nM.); for `CN(C)c1nc(N[C@H]2CC[C@@H](CNC(=O)Nc3cc(Cl)ccc3Cl)CC2)nc2ccccc12` [compound 427], 3 (Class 3: The value of percent of control at 10^−7 M was more than 60% or the value of IC50 was more than 200 nM.); for `CCCCNC(=S)NC[C@H]1CC[C@@H](Nc2nc(N(C)C)c3ccccc3n2)CC1` [compound 583], 3 (Class 3: The value of percent of control at 10^−7 M was more than 60% or the value of IC50 was more than 200 nM.). On the same count and under the same terms, the figure for `CN(C)c1nc(N[C@H]2CC[C@@H](CNC(=S)Nc3cccc(C#N)c3)CC2)nc2ccccc12` [compound 649, N-(3-ciyanophenyl)-N′-[(cis-4-{[4-(dimethylamino)quinazolin-2-yl]amino}cyclohexyl)methyl]thiourea] is 3 (Class 3: The value of percent of control at 10^−7 M was more than 60% or the value of IC50 was more than 200 nM.). Same read-out and setting: the figure for `CN(C)c1nc(N[C@H]2CC[C@@H](NC(=S)Nc3ccc(N(C)C)c4ccccc34)CC2)nc2ccccc12` [compound 389, N-[4-(dimethylamino)-1-naphthyl]-N′-(cis-4-{[4-(dimethylamino)quinazolin-2-yl]amino}cyclohexyl)thiourea] is 1 (Class 1: The value of percent of control at 10^−7 M was less than 40% or the value of IC50 was less than 50 nM.); for `CN(C)c1nc(N[C@H]2CC[C@@H](NC(=S)Nc3ccc(OC(F)F)cc3)CC2)nc2ccccc12` [compound 229, N-[4-(difluoromethoxy)phenyl]-N′-(cis-4-{[4-(dimethylamino)quinazolin-2-yl]amino}cyclohexyl)thiourea] it is 2 (Class 2: The value of percent of control at 10^−7 M was from 40% to 60% or the value of IC50 was from 50 nM to 200 nM.); for `COc1cc([N+](=O)[O-])ccc1NC(=S)NC[C@H]1CC[C@@H](Nc2nc(N(C)C)c3ccccc3n2)CC1` [compound 644] it is 3 (Class 3: The value of percent of control at 10^−7 M was more than 60% or the value of IC50 was more than 200 nM.).

Staying with this test, now noted: class by percent of control at 10^-7 M or by IC50; read-out: class.
For `CCc1cccc(CC)c1NC(=O)N[C@H]1CC[C@@H](Nc2nc(N(C)C)c3ccccc3n2)CC1` [compound 85, N-(2,6-diethylphenyl)-N′-(cis-4-{[4-(dimethylamino)quinazolin-2-yl]amino}cyclohexyl)urea], the IC50 is under 50 nM. As for `Cc1ccccc1NC(=O)N[C@H]1CC[C@@H](Nc2nc(N(C)C)c3ccccc3n2)CC1` [compound 60, N-(cis-4-{[4-(dimethylamino)quinazolin-2-yl]amino}cyclohexyl)-N′-(2-methylphenyl)urea], the IC50 is under 50 nM. On to `Cc1ccccc1CNC(=O)N[C@H]1CC[C@@H](Nc2nc(N(C)C)c3ccccc3n2)CC1` [compound 111, N-(cis-4-{[4-(dimethylamino)quinazolin-2-yl]amino}cyclohexyl)-N′-(2-methylbenzyl)urea], for which the IC50 was under 50 nM. Regarding `CN(C)c1nc(N[C@H]2CC[C@@H](NC(=O)Nc3ccccc3-c3ccccc3)CC2)nc2ccccc12` [compound 11, N-biphenyl-2-yl-N′-(cis-4-{[4-(dimethylamino)quinazolin-2-yl]amino}cyclohexyl)urea], the IC50 is under 50 nM. As to `COCCOC(=O)N[C@H]1CC[C@@H](Nc2nc(N(C)C)c3ccccc3n2)CC1` [compound 852], the IC50 was over 200 nM. The same measure, in the same setting: the figure for `CN(C)c1nc(N[C@H]2CC[C@@H](NC(=S)Nc3ccc(Cl)cc3Cl)CC2)nc2ccccc12` [compound 165, N-(2,4-dichlorophenyl)-N′-(cis-4-{[4-(dimethylamino)quinazolin-2-yl]amino}cyclohexyl)thiourea] is under 50 nM. On the same count and under the same terms, for `CC(=O)c1cccc(NC(=O)N[C@H]2CC[C@@H](Nc3nc(N(C)C)c4ccccc4n3)CC2)c1` [compound 4] the value was over 200 nM. As for `COc1cc(COC(=O)NC[C@H]2CC[C@@H](Nc3nc(N(C)C)c4ccccc4n3)CC2)c([N+](=O)[O-])cc1OC` [compound 868], the IC50 was over 200 nM. Turning to `CN(C)c1nc(N[C@H]2CC[C@@H](CNC(=O)OCCOCc3ccccc3)CC2)nc2ccccc12` [compound 866], the IC50 is over 200 nM.

Staying with this test, now noted: class by percent of control at 10^−7 M or by IC50; read-out: class.
Consider `CN(C)c1nc(N[C@H]2CC[C@@H](C(=O)NCc3cc(F)cc(C(F)(F)F)c3)CC2)nc2ccccc12` [Example 1173, cis-4-{[4-(dimethylamino)quinazolin-2-yl]amino}-N-[3-fluoro-5-(trifluoromethyl)benzyl]cyclohexanecarboxamide], for which the IC50 is under 50 nM. Consider `CN(C)c1nc(N[C@H]2CC[C@@H](NC(=O)c3cccnc3Oc3ccccc3Br)CC2)nc2ccccc12` [Example 1032, 2-(2-bromophenoxy)-N-(cis-4-{[4-(dimethylamino)quinazolin-2-yl]amino}cyclohexyl)nicotinamide], for which the IC50 was under 50 nM. Take `CN(C)c1nc(N[C@H]2CC[C@@H](C(=O)NCc3cccc(Br)c3)CC2)nc2ccccc12` [Example 1160, cis-N-(3-bromobenzyl)-4-{[4-(dimethylamino)quinazolin-2-yl]amino}cyclohexanecarboxamide]: the IC50 was under 50 nM.

As for `COc1ccc(C(O)C(=O)N[C@H]2CC[C@@H](Nc3nc(N(C)C)c4ccccc4n3)CC2)cc1` (relative stereo) [Example 1105, N-(cis-4-{[4-(dimethylamino)quinazolin-2-yl]amino}cyclohexyl)-2-hydroxy-2-(4-methoxyphenyl)acetamide], the IC50 was under 50 nM. On the same count and under the same terms, the figure for `COc1cc(Cl)ccc1Oc1ccc(C(=O)N[C@H]2CC[C@@H](Nc3nc(N(C)C)c4ccccc4n3)CC2)cn1` [Example 1068, 6-(4-chloro-2-methoxyphenoxy)-N-(cis-4-{[4-(dimethylamino)quinazolin-2-yl]amino}cyclohexyl)nicotinamide] is 50 to 200 nM; for `Cc1ccc([C@H](C)NC(=O)[C@H]2CC[C@@H](Nc3nc(N(C)C)c4cc(F)c(F)cc4n3)CC2)cc1` [Example 1007, cis-4-{[4-(dimethylamino)-6,7-difluoroquinazolin-2-yl]amino}-N-[(1S)-1-(4-methylphenyl)ethyl]cyclohexanecarboxamide] it is under 50 nM. Take `CN(C)c1nc(NC[C@@H]2CC[C@H](NC(=O)c3cccc(F)c3)C2)nc2ccccc12` [Example 1132, N-[(1S,3R)-3-({[4-(dimethylamino)quinazolin-2-yl]amino}methyl)cyclopentyl]-3-fluorobenzamide]: the IC50 was over 200 nM.
